Test results published in patent US10925872B2, “Methods of treating cochlear synaptopathy” (PIPELINE THERAPEUTICS, INC., priority 2016, dated 2021).

Legend:
DCC α-fragment [1] = experiment: DCC α-fragment Western blot, mouse ex vivo cochlea (spiral ganglion); type: cell-based, CD-1 mice; conditions: postnatal day 21 cochlea, 1 μM, 24 h, normalized to actin
Text: Previous reports have shown that DCC (deleted in colorectal cancer) is a γ-secretase substrate. DCC is the receptor for the guidance molecule, netrin, and its activation results in neuronal axon outgrowth, axon turning and synapse formation. Embryonic spinal cords of presenilin knockout mice treated display persistent expression of the DCC α-fragment; these fragments can enhance netrin-DCC mediated events, including axon outgrowth in cultured motor neurons (Taniguchi et al., 2003, J. Biol. Chem., 278:30425-30428, and Bai et al., 2011, Cell, 144(1): 106-18). The following studies were performed using GSM, “RO”, as well as the GSI, Compound I. RO has the structure:
Cochleae were obtained from postnatal day 21 CD-1 mice. An opening was made in the bone at the cochlear apex to allow for fluid flow. Cochlea were incubated in serum-free growth media (DMEM-F12, N2 and B27 serum supplements, penicillin/streptomycin) with 1 μM RO or 1 μM Compound I. After 24 h, spiral ganglion were isolated and processed for Western blot. Membranes were probed with a DCC antibody recognizing the intracellular domain and bands were normalized to actin.

DCC α-fragment [2] = experiment: DCC α-fragment Western blot of cochlea after round window delivery in vivo; parameters: species or system CBA/J mice; conditions: 2% in vehicle, 2 μl bilaterally to the round window, one week later
Method: Compound I (2% in vehicle, 2 μl) or vehicle (2 μl) was delivered bilaterally to the round window of CBA/J mice. One week later, cochlea were collected and processed for Western blot. Both cochlea from two animals were used to generate each data point. Cochlea were homogenized in 50 μL radioimmunoprecipitation assay buffer then allowed to lyse further at 4° C. for 1 h. Bone was spun out and 4× sample loading buffer added. Samples were run on a 4-15% TGX gradient gel (BioRad, Hercules, Calif.) and transferred to a nitrocellulose membrane and blocked with Odyssey Blocking Buffer (LI-COR, NE). Blots were probed with mouse DCC (BD Biosciences, San Jose, Calif.) at 1:500, and rabbit actin (loading control) antibodies (Li-Cor, NE) in blocking buffer containing 0.1% Tween-20. Membranes were washed with PBS/0.1% Tween then incubated in secondary antibody (goat anti-mouse IRDye 680LT and goat anti-rabbit IRDye 800LT, both from LI-COR, NE) diluted 1:10,000 in blocking buffer containing 0.1% Tween-20 and 0.01% SDS. Membranes were washed in PBS then imaged on a LiCor Odyssey Classic scanner and the DCC α-fragment quantified using ImageJ.

[3] = system: Type I spiral ganglion neurons; experiment: Type I spiral ganglion neuron neurite outgrowth with GSIs; type: cell-based, CD-1 mice; conditions: 24-48 h, 0.1% DMSO
Method: Mouse spiral ganglion neurons (SGN) were harvested from CD-1 mice (postnatal day 3 to 5), dissociated and cultured on collagen I in serum free media. Cells were treated for 24-48 h with test compound in 0.1% DMSO then immunostained with the neurite marker, Tuj1 and imaged. Neurite length was quantified using ImageJ software (developed by NIH and available publicly). Only Tuj1^+ cells with clear bipolar morphology characteristic of Type I SGNs were quantified. The test compounds were Compound I, Compound II, and RO4929097, as well as the Notch sparing GSI, BMS-708163; NT-3 was included as positive control. […] Moreover, BMS-708163, a Notch-sparing GSI, and Compound I, a Notch inhibiting GSI, both increased type I SGN neurite outgrowth (FIG. 6C).

inner hair cell synapses = experiment: Guinea pig kanamycin-induced cochlear synaptopathy model; type: in vivo, Hartley guinea pigs; conditions: kanamycin 400 mg/kg i.p. 10 days; 30 μl of 2% in vehicle bilateral transtympanic on day 15; three months after
Method: Beginning on day 0, male Hartley guinea pigs (450-500 g) were deafened by intraperitoneal administration of kanamycin (400 mg/kg) dosed once daily for 10 consecutive days. […] A loss of synapse density in this model has not been described previously. On day 15, animals received bilateral transtympanic injections of vehicle (30 μl), crystalline Compound I (30 μl of 2% in vehicle), or crystalline Compound II (30 μl of 2% in vehicle). Three months after administration of test article, animals were euthanized and cochleae collected and stained with phalloidin and antibodies against CtBP2 and NF-200. The number of CtBP2+/NF-200+ synapses were quantified and normalized to the number of inner hair cells to obtain synapse density. Synapse density was decreased with kanamycin treatment at 14.7 and 17.3 mm from the apex of the cochlea, which in the guinea pig cochlea, tonally correlates with 16 and 32 kHz, respectively, according to the Greenwood frequency map.
Vehicle (PF10) and GSI in vehicle used in Examples 6 and 7 were prepared as follows: To 129 mL sterile water was added, 0.96 g sodium chloride, 0.59 g sodium phosphate dibasic, and 0.14 g sodium phosphate monobasic. The solution was stirred at ambient temperature and 25.6 g poloxamer 407 was added and stirred overnight to yield a clear solution. […]

Compound: C[C@H](OC(=O)NCC(F)(F)C(F)(F)F)C(=O)N[C@@H]1C(=O)Nc2ccccc2-c2ccccc21 [Compound I, (2,2,3,3,3-pentafluoropropyl)-carbamic acid (S)-1-((S)-6-oxo-6,7-dihydro-5H-dibenzo[b,d]azepin-7-ylcarbamoyl) ethyl ester]
- DCC α-fragment level compared to the vehicle group (DCC α-fragment [1]): Increase in α-fragment
- DCC α-fragment compared to vehicle alone (DCC α-fragment [2]): approximately two fold increase
- lengths of Type I SGN neurites [3]: significant increase
- synapse density (CtBP2+/NF-200+ synapses per inner hair cell) (inner hair cell synapses): increased
